Data set [1] deals with dopamine D1 receptor (Macaca mulatta (Rhesus macaque), UniProt O77680). The experiment in a line: Affinity on dopamine D1 receptor, competition with [3H] SCH23390. It is filed as binding. Also on record: D1 receptor inhibition ratio (%): concentration or dose not given beside the values. As for the experimental part:
(§1) (1). Determination of the Affinity of Hexahydrodibenzo[a,g]Quinolizine Compound of General Formula I and Derivatives Thereof on Dopamine D1, Dopamine D2, 5-HT1A, and 5-HT2A Receptor.
(§2) 1) The Experimental Method
(§3) Different concentrations (10^−5 M-10^−11 M) of the compound of the invention and corresponding isotope receptor ligand as well as receptor protein were loaded into the reaction tube and incubated in 30° C. water bath for 60 minutes. The reaction was terminated in a refrigerator. The reaction mixture was put in a Millipore filter (millipore) cell sample collector, filtered through suction filtration using GF/C glass fiber filter paper, and dried. The resulting sample was placed into 0.5 mL tube. 500 μL liquid scintillation fluid was added and intensity of radioactivity was determined by counting.
(§4) (1) Construction of receptor and materials for cell culture: Escherichia coli. DH5α strain; insect virus transfer vector pVL1393 plasmid; BaculoGold linear Chinese baculovirus DNA, purchased from ParMingen company; mkD1RcDNA; rD2R cDNA; various restriction endonucleases, TaqDNA polymerase, T4 ligase, etc., LB medium; insect cell culture TNM-FH.
(§5) (2) the Experimental Materials for Receptor Binding
(§6) Firstly, the above […] are dissolved in DMSO and then diluted with double distilled water to the appropriate concentration (10^−5 M-10^−11 M).
(§7) (+) Butaclamo purchased from RBI company, GF/C glass fiber filter paper purchased from Whatman Co., scintillation fluid (dopamine D1, D2 receptors)/liposoluble scintillation fluid (5-HT1A, 5-HT2A receptor), Beckman LS-6500 multi-function liquid scintillation counter.

Data set [2] concerns the target D2 dopamine receptor (Rattus norvegicus (Rat), UniProt P61169). The experiment in a line: Affinity on dopamine D2 receptor, competition with [3H] Spiperone. In kind it is binding. Also on record: D2 receptor inhibition ratio (%): concentration or dose not given beside the values. The protocol:
as §1, §2, §3, §4, §5, §6, §7

Data set [3] can be described thus: In vivo pharmacokinetic experiment of rats (gavage and intravenous). Also noted: species or system SD rats. Conditions: rat. The protocol: Pharmacokinetic properties of Compound DC037029 in rats were preliminarily studied in this experiment. After the tested compound was delivered to rats by intravenous administration and intragastric administration, respectively, the whole blood samples were collected at different time point and the plasma was separated. The concentration of compound in plasma was determined by liquid chromatography-tandem mass spectrometry.
Six healthy male SD rats with the weight of 200-220 g were randomly divided into 2 groups, each of which has three rats. The rats in each group were administrated with the tested compound by gavage or intravenous injection, respectively.
The compound was dissolved in 10% DMSO/10% Tween/[…].
The rats are fasted for 12 h and can drink water ad libitum before test. 2 h after dosing, the rats ate all together. The time point for collecting blood samples and the sample processing are listed as follows.
Intragastric administration time: 0.25, 0.5, 1.0, 2.0, 3.0, 5.0, 7.0, 9.0 and 24 h after administration.
Intravenous administration time: 5 min, 0.25, 0.5, 1.0, 2.0, 3.0, 5.0, 7.0, 9.0 and 24 h after administration. At above time point, 0.3 ml venous blood was taken from retrobulbar venous plexus of the rat and loaded into heparinization tube. After centrifuged at 1000 rpm for 5 min, the plasma was separated and frozen at −20° C. in a refrigerator.

[4] abbreviates: gavage 20 mg/kg, individual animals.
The mark [5] stands for this setting: intravenous injection 10 mg/kg, average.
[6] abbreviates: intravenous injection 10 mg/kg, individual animals.

“And” between values parts separate entries of the source, which are not always exact repeats. Identical values can stand only once.

Chain of dopamine D1 receptor (O77680 whole entry): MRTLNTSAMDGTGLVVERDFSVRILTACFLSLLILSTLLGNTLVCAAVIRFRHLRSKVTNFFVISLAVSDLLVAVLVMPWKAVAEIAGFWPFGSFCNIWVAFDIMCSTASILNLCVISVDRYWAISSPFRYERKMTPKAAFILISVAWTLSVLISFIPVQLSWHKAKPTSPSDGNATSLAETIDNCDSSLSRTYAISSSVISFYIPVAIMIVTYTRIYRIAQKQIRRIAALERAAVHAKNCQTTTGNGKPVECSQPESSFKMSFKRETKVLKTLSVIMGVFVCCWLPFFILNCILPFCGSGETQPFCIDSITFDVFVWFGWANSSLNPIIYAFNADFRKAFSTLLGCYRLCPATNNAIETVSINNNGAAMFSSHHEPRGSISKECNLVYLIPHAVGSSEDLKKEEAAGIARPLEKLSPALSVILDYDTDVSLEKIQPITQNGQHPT
Chain of D2 dopamine receptor (P61169 whole entry): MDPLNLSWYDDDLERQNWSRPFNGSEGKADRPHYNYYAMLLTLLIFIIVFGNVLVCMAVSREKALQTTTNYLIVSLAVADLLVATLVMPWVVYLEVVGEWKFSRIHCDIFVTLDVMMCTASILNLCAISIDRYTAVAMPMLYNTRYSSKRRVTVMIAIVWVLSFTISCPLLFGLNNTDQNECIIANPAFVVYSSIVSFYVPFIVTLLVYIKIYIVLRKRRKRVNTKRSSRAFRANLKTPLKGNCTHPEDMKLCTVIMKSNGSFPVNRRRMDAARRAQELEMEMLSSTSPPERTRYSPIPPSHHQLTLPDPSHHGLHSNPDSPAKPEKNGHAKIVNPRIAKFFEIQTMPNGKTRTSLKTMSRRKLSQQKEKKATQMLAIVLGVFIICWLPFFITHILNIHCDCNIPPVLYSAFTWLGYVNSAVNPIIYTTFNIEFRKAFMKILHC

With `c1c2c(cc3c1OCO3)CN1CCc3cc4c(cc3[C@@H]1C2)OCO4` [DC037012, S-(−)-2,3,10,11-bimethylenedioxy-5,8,13,13a-tetrahydro-6H-dibenzo[a,g]quinolizine], in data set [1], the “D1 receptor inhibition ratio (%)” value was 95.8%, the half-maximal inhibitory concentration (IC50) worked out at 300 nM and the Ki came to 148 nM. In data set [2], the “D2 receptor inhibition ratio (%)” value stood at 89.3%, the IC50 turned out to be 1240 nM and the Ki amounted to 240 nM.
As to `COc1ccc2c(c1)CCN1Cc3cc(OC)c(OC)cc3C[C@@H]21` [DC037010, S-(+3,10,11-trimethoxy-5,8,13,13a-tetrahydro-6H-dibenzo[a,g]quinolizine], the “D1 receptor inhibition ratio (%)” value in data set [1] came out at 66.8%. For the same compound, the “D2 receptor inhibition ratio (%)” value in data set [2] amounted to 51.5%.
As for `COc1cc2c(cc1OC)C1Cc3cc(O)c(O)cc3CN1CC2` (racemic) [DC037022, (±)-2,3-bimethoxy-10,11-bihydroxy-5,8,13,13a-tetrahydro-6H-dibenzo[a,g]quinolizine], in data set [1], the “D1 receptor inhibition ratio (%)” value was determined as 89.0%, the IC50 came out at 1010 nM and the Ki is 498 nM. Further, in data set [2], the “D2 receptor inhibition ratio (%)” value was 10.6%.
Turning to `Cc1ccc(C)c2c1CC1c3cc4c(cc3CCN1C2)OCO4` (stereo not drawn) [DC037033, S-(−)-2,3-methylenedioxy-9,12-dimethyl-5,8,13,13a-tetrahydro-6H-dibenzo[a,g]quinolizine], the “D1 receptor inhibition ratio (%)” value in data set [1] is recorded as 91.94%. For the same compound, in data set [2], the “D2 receptor inhibition ratio (%)” value was 13.75%.
With `COc1cc2c(cc1O)[C@@H]1Cc3cc4c(cc3CN1CC2)OCO4` [DC037029, S-(−)-2-hydroxy-3-methoxy-10,12-methylenedioxy-5,8,13,13a-tetrahydro-6H-dibenzo[a,g]quinolizine], the IC50 in data set [1] came to 8.19 nM. The Ki in data set [1] worked out at 4.2 nM. Further, in data set [1] (summary of the tables), the “affinity on dopamine D1 receptor (in words)” value is given as “strong affinity”. For the same compound, in data set [3] (gavage 20 mg/kg), the “F (absolute bioavailability)” value was 34.2%. Moreover, the Plasma concentration in data set [3] (gavage 20 mg/kg, 0.25 h, average) is 392 ng/mL; in data set [3] (gavage 20 mg/kg, 0.25 h, individual animals) it was 268 ng/mL and 416 ng/mL and 493 ng/mL; in data set [3] (gavage 20 mg/kg, 0.5 h, average), 445 ng/mL; in data set [3] (gavage 20 mg/kg, 0.5 h, individual animals) it was 289 ng/mL and 494 ng/mL and 553 ng/mL; in data set [3] (gavage 20 mg/kg, 1.0 h, average), 420 ng/mL; in data set [3] (gavage 20 mg/kg, 1.0 h, individual animals) it was 230 ng/mL and 455 ng/mL and 575 ng/mL. Moreover, the Plasma concentration in data set [3] (gavage 20 mg/kg, 2.0 h, average) was 345 ng/mL; in data set [3] (gavage 20 mg/kg, 2.0 h, individual animals) it was 218 ng/mL and 326 ng/mL and 492 ng/mL; in data set [3] (gavage 20 mg/kg, 3.0 h, average), 289 ng/mL; in data set [3] (gavage 20 mg/kg, 3.0 h, individual animals), 231 ng/mL and 207 ng/mL and 431 ng/mL; in data set [3] (gavage 20 mg/kg, 5.0 h, average) it was 266 ng/mL; in data set [3] (gavage 20 mg/kg, 5.0 h, individual animals), 233 ng/mL and 236 ng/mL and 330 ng/mL. Moreover, the Plasma concentration in data set [3] (gavage 20 mg/kg, 7.0 h, average) is 122 ng/mL; in data set [3] (gavage 20 mg/kg, 7.0 h, individual animals), 169 ng/mL and 80.3 ng/mL and 118 ng/mL; in data set [3] (gavage 20 mg/kg, 9.0 h, average), 82.2 ng/mL; in data set [3] (gavage 20 mg/kg, 9.0 h, individual animals), 91.9 ng/mL and 41.3 ng/mL and 113 ng/mL; in data set [3] (gavage 20 mg/kg, 24.0 h, average) it was 4.28 ng/mL; in data set [3] (gavage 20 mg/kg, 24.0 h, individual animals) it was 9.67 ng/mL and 1.26 ng/mL and 1.90 ng/mL. In addition, the Plasma concentration in data set [3] (intravenous injection 10 mg/kg, 0.083 h, average) was 4194 ng/mL; in data set [3] (intravenous injection 10 mg/kg, 0.083 h, individual animals) it was 4576 ng/mL and 4169 ng/mL and 3837 ng/mL; in data set [3] (intravenous injection 10 mg/kg, 0.25 h, average), 2883 ng/mL; in data set [3] (intravenous injection 10 mg/kg, 0.25 h, individual animals), 3010 ng/mL and 2766 ng/mL and 2874 ng/mL; in data set [3] (intravenous injection 10 mg/kg, 0.5 h, average), 1942 ng/mL; in data set [3] (intravenous injection 10 mg/kg, 0.5 h, individual animals), 2055 ng/mL and 1788 ng/mL and 1984 ng/mL. Further, the Plasma concentration was 1207 ng/mL in data set [3] (intravenous injection 10 mg/kg, 1.0 h, average); 1211 ng/mL and 1047 ng/mL and 1365 ng/mL in data set [3] (intravenous injection 10 mg/kg, 1.0 h, individual animals); 571 ng/mL in data set [3] (intravenous injection 10 mg/kg, 2.0 h, average); 590 ng/mL and 527 ng/mL and 596 ng/mL in data set [3] (intravenous injection 10 mg/kg, 2.0 h, individual animals); 255 ng/mL in data set [3] (intravenous injection 10 mg/kg, 3.0 h, average); 228 ng/mL and 294 ng/mL and 243 ng/mL in data set [3] (intravenous injection 10 mg/kg, 3.0 h, individual animals). Moreover, the Plasma concentration in data set [3] (intravenous injection 10 mg/kg, 5.0 h, average) is 75.3 ng/mL; in data set [3] (intravenous injection 10 mg/kg, 5.0 h, individual animals) it was 65.0 ng/mL and 83.7 ng/mL and 77.2 ng/mL; in data set [3] (intravenous injection 10 mg/kg, 7.0 h, average) it was 20.7 ng/mL; in data set [3] (intravenous injection 10 mg/kg, 7.0 h, individual animals) it was 19.2 ng/mL and 21.1 ng/mL and 21.7 ng/mL; in data set [3] (intravenous injection 10 mg/kg, 9.0 h, average), 8.00 ng/mL; in data set [3] (intravenous injection 10 mg/kg, 9.0 h, individual animals), 7.31 ng/mL and 9.26 ng/mL and 7.41 ng/mL. For the same compound, the Plasma concentration in data set [3] (intravenous injection 10 mg/kg, 24.0 h, average) was 1.76 ng/mL; in data set [3] (intravenous injection 10 mg/kg, 24.0 h, individual animals) it was 2.26 ng/mL and 1.61 ng/mL and 1.41 ng/mL. Besides, the AUC0-t in data set [3] (gavage 20 mg/kg, average) was 2867 ± 798 ng·h/mL and 2867 ng·h/mL; in data set [3] (setting [4]) it was 3771 ng·h/mL and 2570 ng·h/mL and 2260 ng·h/mL; in data set [3] (setting [5]) it was 4196 ± 141 ng·h/mL and 4196 ng·h/mL; in data set [3] (setting [6]), 4262 ng·h/mL and 4292 ng·h/mL and 4034 ng·h/mL. Moreover, the “AUC0-∞” value is 2891 ng·h/mL in data set [3] (gavage 20 mg/kg, average); 3779 ng·h/mL and 2629 ng·h/mL and 2265 ng·h/mL in data set [3] (setting [4]); 4210 ng·h/mL in data set [3] (setting [5]); 4272 ng·h/mL and 4313 ng·h/mL and 4046 ng·h/mL in data set [3] (setting [6]). Also, the peak concentration (Cmax) in data set [3] (gavage 20 mg/kg, average) is 453 ± 147 ng/mL and 453 ng/mL; in data set [3] (setting [4]) it was 575 ng/mL and 289 ng/mL and 494 ng/mL. The MRT was 5.04 h in data set [3] (gavage 20 mg/kg, average); 4.67 h and 6.45 h and 4.00 h in data set [3] (setting [4]); 1.47 h in data set [3] (setting [5]); 1.42 h and 1.46 h and 1.53 h in data set [3] (setting [6]). The Tmax in data set [3] (gavage 20 mg/kg, average) is 0.67 ± 0.29 h and 0.67 h; in data set [3] (setting [4]), 1.00 h and 0.50 h (2×). Further, the t1/2 was 3.26 ± 0.82 h and 3.26 h in data set [3] (gavage 20 mg/kg, average); 2.70 h and 4.20 h and 2.89 h in data set [3] (setting [4]); 5.44 ± 0.85 h and 5.44 h in data set [3] (setting [5]); 4.88 h and 6.42 h and 5.01 h in data set [3] (setting [6]). Moreover, the “CLz (plasma clearance rate CL)” value in data set [3] (setting [5]) was 39.7 ± 1.3 mL/min/kg and 39.7 mL/min/kg. The “Vss (steady state distribution volume)” value in data set [3] (setting [5]) was 3.49 ± 0.24 L/kg and 3.49 L/kg. Besides, in data set [3] (setting [6]), the CLz was 39 mL/min/kg and 38.7 mL/min/kg and 41.2 mL/min/kg. In addition, the Vss in data set [3] (setting [6]) was 3.33 L/kg and 3.38 L/kg and 3.78 L/kg.
`COc1ccc(OC)c2c1C[C@H]1c3cc4c(cc3CCN1C2)OCO4` [DC037013, S-(−)-2,3-methylenedioxy-9,12-bimethoxy-5,8,13,13a-tetrahydro-6H-dibenzo[a,g]quinolizine]: in data set [1], the IC50 came out at 47.9 nM and the Ki was found to be 23.6 nM.

Source of the values: patent US9359372B2, “Hexahydrodibenzo[a,g]quinolizine compound, preparation method thereof, pharmaceutical composition and use thereof” (SHANGHAI INSTITUTE OF MATERIA MEDICA, CHINESE ACADEMY OF …, priority 2011, dated 2016).
